Read-outs that look alike come from different tables or passages of the source.

These results are taken from patent publication US5456247A, “Method for delivering drugs soluble in a vaporization vehicle” (priority 1993, dated 1995).

A short description of data set [1]: Volatilization of drugs with a vaporization vehicle. To be noted: menthol as vaporization vehicle. The data set is classed as physicochemical. The text has this: The amount of vaporization vehicle depends on which drug is delivered. […] Other potential vaporization vehicles include carvone, menthone and camphor.
Data set [2] has as its system bordetella avium. Conditions: turkeys; route not stated; cited from earlier work.
The nature of data set [3]: in vivo. Conditions: rat, inhaled or intranasal. On the procedure: Tests were conducted to study the entry of sulfa drugs into the blood and lungs of test subjects. […] Rats were placed in the treatment chamber 9. […] An air pump was used to circulate air through the volatile chamber 10 to the treatment chamber. The rats' condition, temperature of the flask and vapor flow into the treatment chamber 9 were monitored. After three minutes of inhalation therapy the air flow was shut off and the rats were removed from treatment chamber 9. Blood and lung tissue were removed for testing.

A short description of data set [4]: in vivo. Conditions: inhaled or intranasal.
Method: (§1) The levels that were taken orally were administered for a period of time on the order of days, while inhalation treatments were for a period of time on the order of minutes in length (five minutes).
For data set [5] the following is noted: in vivo.
Method: as §1
The conditions of data set [6]: rat, in vivo, inhaled or intranasal, 0.05 h. The procedure:
Tests were conducted to study the entry of sulfa drugs into the blood and lungs of test subjects. […] Samples of sulfamethazine and menthol (0.285 grams equal portions of each) were weighed and heated at 180° C. in a distillation flask in the volatile chamber. Rats were placed in the treatment chamber 9. […] An air pump was used to circulate air through the volatile chamber 10 to the treatment chamber. The rats' condition, temperature of the flask and vapor flow into the treatment chamber 9 were monitored. After three minutes of inhalation therapy the air flow was shut off and the rats were removed from treatment chamber 9. Blood and lung tissue were removed for testing.

Regarding gentamicin, the “need for menthol for volatilization” value in data set [1] is “can be volatilized with little or no menthol”. Also, the “success at treating bordetella avium disease” value in data set [2] is “successful at treating the disease”.
With `Cc1cc(C)nc(NS(=O)(=O)c2ccc(N)cc2)n1` [sulfamethazine], the “Lungs: sulfamethazine level” value in data set [3] (0.05 h) was ~ 0.1 ppm; in data set [6], 50 ppb. Besides, the concentration at 0.05 h in data set [3] (Lungs: sulfamethazine level) was around 100 ng/g. For the same molecule, the concentration at 25 min in data set [4] was determined as 100 ng/g. In data set [5] (0 min), the “sulfamethazine level in lung tissue, inhalation, immediate” value amounted to 0.2 ppm. Moreover, the “sulfamethazine level in lung tissue, oral” value in data set [5] (po) came to 0.1 ppm.
With `Cc1cc(NS(=O)(=O)c2ccc(N)cc2)no1` [sulfamethoxazole], in data set [2], the “success at treating bordetella avium disease” value was “successful at treating the disease”.
